Experimental data taken from patent US20240279710A1, “FLUORESCENT PROBES” (TOHOKU TECHNO ARCH CO., LTD., priority 2021, published 2024).

Key:
[1] = target: T1, calpain-1 from human erythrocytes (Homo sapiens, UniProt P07384); assay: Fluorescence assay with calpain-1; type: biochemical; details: 10 μM probe, 17.4 U/mL calpain-1, 5 mM CaCl2, 37° C., FIG. 4
T1 construct: calpain-1 from human erythrocytes; purchased Merck Millipore 208713; host or cells: human erythrocytes (natural source)
T1 sequence (P07384 1-714): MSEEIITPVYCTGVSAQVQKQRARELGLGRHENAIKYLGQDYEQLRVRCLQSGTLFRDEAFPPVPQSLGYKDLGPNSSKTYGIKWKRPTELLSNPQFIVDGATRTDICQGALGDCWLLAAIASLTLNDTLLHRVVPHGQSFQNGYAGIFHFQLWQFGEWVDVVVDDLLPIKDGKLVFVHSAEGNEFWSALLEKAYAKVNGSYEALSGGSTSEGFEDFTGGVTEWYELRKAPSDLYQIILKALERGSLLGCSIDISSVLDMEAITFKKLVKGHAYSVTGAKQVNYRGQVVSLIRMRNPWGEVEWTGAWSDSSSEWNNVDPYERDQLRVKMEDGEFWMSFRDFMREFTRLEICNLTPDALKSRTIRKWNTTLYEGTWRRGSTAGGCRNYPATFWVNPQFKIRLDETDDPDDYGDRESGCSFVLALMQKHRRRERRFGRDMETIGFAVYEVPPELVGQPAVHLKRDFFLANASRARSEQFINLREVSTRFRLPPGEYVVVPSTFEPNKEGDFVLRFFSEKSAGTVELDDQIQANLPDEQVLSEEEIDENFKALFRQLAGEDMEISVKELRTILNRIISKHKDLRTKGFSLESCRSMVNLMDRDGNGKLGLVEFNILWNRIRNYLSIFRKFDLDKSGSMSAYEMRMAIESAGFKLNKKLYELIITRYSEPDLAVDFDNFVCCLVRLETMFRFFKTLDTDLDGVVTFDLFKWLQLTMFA
T1 sequence (P04632 1-268 partner): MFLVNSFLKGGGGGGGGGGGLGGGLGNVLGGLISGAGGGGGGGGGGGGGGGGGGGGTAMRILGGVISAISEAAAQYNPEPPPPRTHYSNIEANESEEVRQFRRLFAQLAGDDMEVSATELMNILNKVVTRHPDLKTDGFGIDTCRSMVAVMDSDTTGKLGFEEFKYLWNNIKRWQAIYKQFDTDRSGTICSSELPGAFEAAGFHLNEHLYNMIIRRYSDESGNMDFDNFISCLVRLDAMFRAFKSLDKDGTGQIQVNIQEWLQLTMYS
Procedure: The fluorescence assays of Compound 19 and Compound 16 with time were performed. Specifically, 17.4 U/mL of calpain-1 and 5 mM CaCl2 were added to a 50 mM TRIS buffer (pH: 7.4, 2 mM EGTA, 2 mM DTE) containing 10 μM of each of the synthesized fluorescent probes to perform an enzyme reaction at 37° C. Each of the compounds to which calpain-1 and CaCl2 were not added was similarly subjected as a negative control to the measurement.
The fluorescence assays of Compounds 16 to 36 were similarly performed. 50 Units per milliliter (Compounds 16 and 19 to 25) or 17.4 U/mL (Compounds 16 to 18 and 26 to 36) of calpain-1 and 5 mM CaCl2 were added to a 50 mM TRIS buffer (pH: 7.4, 2 mM EGTA, 2 mM DTE) containing 10 μM of each of the synthesized fluorescent probes to perform an enzyme reaction at 37° C.
Next, similar fluorescence assays of Compounds 37, 42, 45, 48, 51, 53, 55, 57, and 59 with calpain-1 were performed. Specifically, 17.4 U/mL of calpain-1 and 5 mM CaCl2 were added to a 50 mM TRIS buffer (pH: 7.4, 2 mM EGTA, 2 mM DTE) containing 10 μM of each of the synthesized fluorescent probes to perform an enzyme reaction at 37° C. Each of the compounds to which calpain-1 was not added was used as a control.
To evaluate an influence of a R^12-L-O— group on the reactivity of each of compounds having the same amino acids with calpain-1, the fluorescence assays of Compounds 37 to 66 with calpain-1 were performed in accordance with the above-mentioned method. Specifically, 17.4 U/mL of calpain-1 and 5 mM CaCl2 were added to a 50 mM TRIS buffer (pH: 7.4, 2 mM EGTA, 2 mM DTE) containing 10 μM of each of the synthesized fluorescent probes to perform an enzyme reaction at 37° C., followed by the measurement of an increase in fluorescence intensity of each of the compounds 10 minutes after the addition of calpain-1.

calpain = assay: Rat NMDA injury model, ocular fundus imaging; type: in vivo; details: for staining of nerve cells with HMRG in ocular fundus: probe 18.3 μM, 20 minutes after administration; for number of HMRG-positive cells in ocular fundus: FIG. 16
Procedure: Black Brown-Norway rats were each subjected to general anesthesia with isoflurane. PBS or N-methyl-D-aspartate (NMDA) (10 mM, 2 μL) was administered into an eye of the rat. 6 Hours after that, the rat was anesthetized with a mixed liquid of ketamine and xylazine again, and Compound 19 (18.3 μM, 3 μL) was administered into the eye. Images of an ocular fundus were taken with F-10 (a confocal biomicroscope manufactured by Nidek Co., Ltd.) before the administration of Compound 19 and 20 minutes after the administration.

[2] = Optical characteristics: absorption and fluorescence spectrum at each pH; type: physicochemical; details: 10 mM phosphate buffer, pH 2 to 11, 1 μM probe, 1% DMSO, excitation 490 nm; neutral condition
Procedure: The absorption spectrum and fluorescence spectrum of Compound 19 at each pH were each measured. Specifically, a measurement solution was prepared by adding a solution (0.1 mM) of Compound 19 in DMSO to a 10 mM phosphate buffer at each pH in the pH range of from 2 to 11 so that the final probe concentration became 1 μM, and the final DMSO concentration became 1%. The fluorescence spectrum of the measurement solution was measured at an excitation wavelength of 490 nm.

## COCC(=O)N[C@@H](CC(C)C)C(=O)N[C@@H](CCSC)C(=O)Nc1ccc2c(c1)Oc1cc(N)ccc1C21OCc2ccccc21 (stereo partly shown) [Compound 19]
[1]; excitation 475 nm, fluorescence 500-550 nm
  change in fluorescence intensity with time by calpain-1: functioned as a fluorescent probe for calpain-1
[1]
  reactivity with calpain-1 compared with Compound 16 (fluorescence with time): further improved in reactivity with calpain-1
calpain; rats administered NMDA (10 mM, 2 μL), 3 μL into the eye 6 hours later
  staining of nerve cells with HMRG in ocular fundus: many of the nerve cells were clearly stained
calpain; rats administered NMDA
  number of HMRG-positive cells in ocular fundus: significant increase
calpain; rats administered PBS
  number of HMRG-positive cells in ocular fundus: extremely small
calpain; rats administered PBS, 3 μL into the eye
  staining of nerve cells with HMRG in ocular fundus: substantially no nerve cells are stained
[2]
  absorption spectrum and fluorescence spectrum at each pH: mainly colorless and nonfluorescent
